Measurements reported in patent US10716769B2 (GUANGZHOU JTREAT BIOSCI. LTD., priority 2015, dated 2020).
Values after ≈ are worked out from the molar mass of the structure shown.

Key:
Type in all cases: cell-based
HSV-I, VR733 strain = assay: Inhibition of cytopathic effects of Vero cells caused by herpes virus type I; conditions: Human alphaherpesvirus 1; Vero cells, CPE 48 hours, Reed-Muench; read-out: IC50 Against HSV-1
From the text: Vero cells (kidney cells of African green monkey) are used as viral hosts to test the inhibition degree of the samples to the cytopathic effects of Vero cells caused by herpes virus type I and type II.
Vero cells (kidney cells of African green monkey) are used as viral hosts to test the inhibition degree of the samples to cytopathic effects of the Vero cell caused by herpes virus type I and type II.
1. Virus strains: HSV-I, VR733 strain, and HSV-II, SAV strain, which both are provided by ATCC.
2. Sample treatment: the sample is dissolved in DMSO at an appropriate concentration before use, and diluted with the culture medium 3 times at a total of 8 dilutions for test.
3. Positive control drug: acyclovir (ACV) produced by the Hubei Ke Yi pharmaceutical factory.

[1] = system: human gastric cancer cell line (MCG804); assay: MTT in vitro tumor cell inhibition; conditions: 3 days; for Inhibitory rate, sensitivity class: MCG804, 10^−6 g/ml
From the text: (§1) An effective amount of the above compounds and/or the compositions containing the same used as an active ingredient have an effect on inhibiting the tumor cells. The present invention detects the inhibitory effect of the hydroxy-substituted benzophenone compounds on the proliferation of the in vitro cultured human tumor cells by the methylthiazolyl tetrazolium method.
(§2) The method is used to detect cell viability. […] Particles can be dissolved by dimethyl sulfoxide (DMSO) isopropyl alcohol or 10% acidified SDS (sodium dodecyl sulfate), and a microplate reader is used to measure the OD value at A570 wavelength, which indirectly reflects the number of live cells. The method is used for detection of the cytokines bioactivity, as well as anti-tumor drugs and tumor radiosensitivity and cytotoxicity test, and has the characteristics of being simple, fast, economical, sensitive and accurate and having good reproducibility and no need to use radionuclides. This method has been widely used in screening preclinical anticancer drugs and detecting the drug sensitivity of fresh tumor cells. The method is as below:
(§3) (1) The tumor cell suspension prepared by 0.25% of trypsin digestion and adjusted to a cell concentration of 10^5/ml with RPMI1640 containing 10% fetal calf serum is added to a 96-well plate with 100 μl for each well, cultured 24 hours, and then different dosages of drugs are added with 100 μl/well, for which, the negative control groups, positive control groups and withering wells are set, and 4 parallel wells are set for each group.
(§4) (2) They are continually cultured in incubator containing 5% of CO2 at 37° C. for 24 to 48 hours. MTT solution (5 g/L) is added to each well before the termination of the experiment. The OD value at A570 nm is detected by microplate reader. The OD value at A570 of the negative group without the addition of drugs is taken as a control. The cell survival rate and cell inhibition rate of drugs are calculated according to the following formula: Cell survival rate=(OD value of test group/OD value of control group)×100% Cell inhibition rate (%)=(OD value of the control group−OD value of the test group/(OD value of the control group−OD value of the blank group)
(§5) 1. Tumor cell lines: human glioma cell line (U251), human colon cancer cell line (LOVO), human hepatoma cell line (HepG2), human lung cancer cell line (PC84045), human endometrial carcinoma cell line (JEC), human renal carcinoma (GRC), human gastric cancer cell line (MCG804), human cervical cancer cell line (HeLa), human hepatocellular carcinoma cell line (BEL-7402) and human umbilical vein endothelial cell line (ECV304) purchased from Animal Experimental Center of Zhongshan Medical College, and preserved by the present laboratory.
(§6) The tumor cell lines are cultured in RPMI-1640 medium containing 15% of the newborn bovine serum in a conventional manner, placed in the humidification incubator containing 5% of CO2 for being cultured at 37° C., and are observed for growth by an inverted microscope. A subculture is conducted every about 3-5 days, the cells in logarithmic growth phase are adopted to be digested with 0.25% of trypsin, and the serum-free RPMI-1640 medium is used for culturing the cell suspension; the blood counting plate makes counting, the trypan blue exclusion tests the cell activity, and the cell viability>95% is used for formal tests.
(§7) Liquid preparation: the compounds are labeled with the codes respectively, DMSO is used to dissolve each compound, the bacterial filter is used to remove bacteria, and each compound is prepared into 10^−4 g/ml, 10^−5 g/ml, 10^−6 g/ml and preserved at 4° C. for use. […]

[2] = system: human lung cancer cell line (PC84045); assay: MTT in vitro tumor cell inhibition; conditions: 3 days; for Inhibitory rate, sensitivity class: PC84045, 10^−6 g/ml
From the text: as §1, §2, §3, §4, §5, §6, §7

[3] = system: human hepatoma cell line (HepG2); assay: MTT in vitro tumor cell inhibition; conditions: 3 days; for Inhibitory rate, sensitivity class: HepG2, 10^−6 g/ml
From the text: as §1, §2, §3, §4, §5, §6, §7

[4] = system: human glioma cell line (U251); assay: MTT in vitro tumor cell inhibition; conditions: 3 days; for Inhibitory rate, sensitivity class: U251, 10^−6 g/ml
From the text: as §1, §2, §3, §4, §5, §6, §7

[5] = system: human endometrial carcinoma cell line (JEC); assay: MTT in vitro tumor cell inhibition; conditions: 3 days; for Inhibitory rate, sensitivity class: 10^−6 g/ml
From the text: as §1, §2, §3, §4, §5, §6, §7

[6] = system: human cervical cancer cell line (HeLa); assay: MTT in vitro tumor cell inhibition; conditions: 3 days
From the text: as §1, §2, §3, §4, §5, §6, §7

[7] = system: human colon cancer cell line (LOVO); assay: MTT in vitro tumor cell inhibition; conditions: 3 days
From the text: as §1, §2, §3, §4, §5, §6, §7

MCF7 = assay: MTT in vitro tumor cell inhibition; conditions: 3 days; for Inhibitory rate, sensitivity class: MCF7, 10^−6 g/ml
From the text: as §1, §2, §3, §4, §6
Liquid preparation: the compounds are labeled with the codes respectively, DMSO is used to dissolve each compound, the bacterial filter is used to remove bacteria, and each compound is prepared into 10^−4 g/ml, 10^−5 g/ml, 10^−6 g/ml and preserved at 4° C. for use.
MTT method: a bottle of 4-5 days old cells in the exponential growth phase are adopted to be cultured, and added with an appropriate amount of Trypsin-EDTA solution, so as to enable the adherent cells to fall off, and are prepared with 10 ml of RPMI-1640 medium containing 15% newborn bovine serum into suspensions; after stained with trypan blue, the cell number is counted on the blood counting plate to ensure that the live cells is more than 97%; the cell suspensions are diluted by the complete medium so that each […] of solution contains 5000-400000 cells; the 96-well plate is used with 200 μl of cell suspensions added into each. The 96-well plate is placed at 37° C. in 5% of CO2 containing incubator for 24 hours; the test compounds are diluted at 3 dilutions with 5 wells in parallel for each concentration; the serum-free RPMI1640 is used as the control group. […]

SMILES | IC50 (HSV-I, VR733 strain) [µg/mL] | Inhibitory rate % ([1]; MCG804, 10^−4 g/ml) [%] | Inhibitory rate % ([1]; MCG804, 10^−5 g/ml) [%] | Inhibitory rate, sensitivity class [1] | Inhibitory rate % ([2]; PC84045, 10^−4 g/ml) [%] | Inhibitory rate % ([2]; PC84045, 10^−5 g/ml) [%] | Inhibitory rate, sensitivity class [2] | Inhibitory rate % ([3]; HepG2, 10^−4 g/ml) [%] | Inhibitory rate % ([3]; HepG2, 10^−5 g/ml) [%] | Inhibitory rate, sensitivity class [3] | Inhibitory rate % ([4]; U251, 10^−4 g/ml) [%] | Inhibitory rate % ([4]; U251, 10^−5 g/ml) [%] | Inhibitory rate, sensitivity class [4] | Inhibitory rate % ([5]; 10^−4 g/ml) [%] | Inhibitory rate % ([5]; 10^−5 g/ml) [%] | Inhibitory rate, sensitivity class [5] | Inhibitory rate % ([6]; 10^−4 g/ml) [%] | Inhibitory rate, sensitivity class ([6]; 10^−6 g/ml) | Inhibitory rate, sensitivity class ([7]; 10^−6 g/ml) | Inhibitory rate % (MCF7; MCF7, 10^−4 g/ml) [%] | further results
O=C(c1ccc(O)c(O)c1O)c1ccc(O)c(O)c1O [2,3,4,2′,3′,4′-hexahydroxybenzophenone] | 28.7 (≈ 103 µM) | 80.93 | 30.12 | insensitive (<30% means insensitive) | 84.60 | 72.34 | insensitive (<30% means insensitive) | 86.15 | 75.54 | insensitive (<30% means insensitive) | 83.26 | 30.87 | insensitive (<30% means insensitive) | 85.63 | 42.79 | insensitive (<30% means insensitive) | 61.12 | insensitive (<30% means insensitive) | insensitive (<30% means insensitive) | 76.37 | Inhibitory rate, sensitivity class ([6]; 10^−5 g/ml): insensitive (<30% means insensitive); Inhibitory rate, sensitivity class ([7]; 10^−4 g/ml): insensitive (<30% means insensitive); Inhibitory rate, sensitivity class ([7]; 10^−5 g/ml): insensitive (<30% means insensitive); Inhibitory rate % (MCF7; MCF7, 10^−5 g/ml): 43.52%; Inhibitory rate, sensitivity class (MCF7): insensitive (<30% means insensitive)
O=C(c1ccccc1)c1ccc(O)c(O)c1O [2,3,4-trihydroxybenzophenone] | 28.7 (≈ 125 µM) | 87.14 | 62.75 | insensitive (<30% means insensitive) | 85.75 | 32.79 | insensitive (<30% means insensitive) | 93.40 | 58.05 | insensitive (<30% means insensitive) | 85.42 | 43.57 | insensitive (<30% means insensitive) | 86.79 | 40.97 | insensitive (<30% means insensitive) | 89.81 | insensitive (<30% means insensitive) | insensitive (<30% means insensitive) | 78.59 | Inhibitory rate % ([6]; 10^−5 g/ml): 34.53%; Inhibitory rate % ([7]; 10^−4 g/ml): 90.02%; Inhibitory rate % ([7]; 10^−5 g/ml): 46.78%; Inhibitory rate % (MCF7; MCF7, 10^−5 g/ml): 38.60%; Inhibitory rate, sensitivity class (MCF7): insensitive (<30% means insensitive)
